Source: patent US20260174677A1, “METHODS OF TREATING INSULIN RESISTANCE AND ASSOCIATED DISORDERS” (The University of Melboune, priority 2022, published 2026)

What was measured:
[1] = Intranasal PZ6005 in diet-induced obese mice: body weight, tissue mass and fat mass; assay type: in vivo, mouse
Description: Metabolic measurements were undertaken in the Melbourne Mouse Metabolic Phenotyping Platform (The University of Melbourne, Australia). Glucose tolerance tests were performed on 6 h fasted conscious mice respectively by injecting D-glucose (2 mg/g of lean body mass and 1 mg/g lean mass for db/db and HFHS+STZ mice) into the peritoneal cavity and measuring glucose in tail blood immediately before and at 15, 30, 45, 60, 90 and 120 min after injection using an Accu-Check glucometer (Roche, Germany). The areas under glucose excursion curves were determined and expressed as mmol/1×min. Fasted (12 h fast) plasma insulin or glucose levels were determined using a Rat/Mouse Insulin ELISA (EZRMI-13K, Merck Millipore, CA) or an Accu-Check glucometer respectively. The HOMA-IR was calculated using the equation [(glucose×insulin)/405]. Adiposity was measured using TD-NMR minispec (Bruker Optics Inc., Billerica, MA).
(§1) Conscious mice were restrained by scruffing and inverted parallel to the floor with the chin at ˜180-degree angle with the neck. Using a 10 μL tip, a pipettor was loaded with 5 μl of vehicle (ddH2O) or fluorosamine (1 mg/animal in 20 μl or 5 mg/animal in 20 μl). The tip of the filled pipettor was placed near the left nostril at a 45-degree angle, and the drug was ejected to form a small 5 μl droplet at tip for the mouse to inhale. Immediately after the mouse inhaled the first droplet the remaining solution was ejected to form another small droplet for the mouse to inhale through the same nostril. The mouse was held in this position for 15 seconds before the procedure was repeated in the right nostril. The mouse was returned to the cage for 2 minutes and the process was repeated so that each mouse received four droplets of 5 μl each, delivering a total of 20 μl of solution. All drugs were administered delivered approximately 1 h before lights off […].
Changes in body weight of 12-week-HFHS-diet-fed obese mice during 14 days of intranasal administration of either vehicle or PZ6005 (1 or 5 mg/animal/day). Intranasal PZ6005 treatment induce weight loss in a dose-dependent manner, as assessed by significant differences in weight changes across groups. […] At the end of the experiment, mice in the highest dose of PZ6005 treatment had lost […] and those in the 1 mg treatment had lost […], whereas control littermates maintained at 3.57±1.28% of body weight (FIG. 10a).
To determine the influence of intranasal PZ6005-mediated attenuated neurofibrosis on tissue-specific adiposity and body composition, peripheral tissues and fat mass of the mice were weighed following the 14-day administration. […] Moreover, the reduction in overall fat mass depended upon the doses of PZ6005.

[2] = test system: insulin-induced p-AKT in the ARC; test: Intranasal PZ6005 in obese mice: insulin-induced p-AKT immunohistochemistry in the ARC; assay type: in vivo, mouse; details: both doses I.N. (1 or 5 mg/animal/day), 14 days, after I.P. insulin
Description: as §1

[3] = I.N. 1 mg/animal/day, 14 days, obese mice
[4] = I.N. highest dose (5 mg/animal/day), 14 days, obese mice

CC(=O)NC1C(OC(C)=O)OC(COC(C)=O)[C@@H](F)C1OC(C)=O (some centres unmarked) [fluorosamine, per-O-acetylated-4-F-N-acetylglucosamine]
body weight lost at the end of the experiment [1, 3]: 16.32±1.41% | mass of epiWAT, BAT and liver [1, 3]: decreased | post-treatment fat mass decrease compared to pre-treatment mass [1, 3]: 12.59±2.29% | day from which weight was robustly decreased ([1]; I.N. 1 mg/animal/day, obese mice): 7 days | day on which 5 mg treatment began to significantly reduce more weight than 1 mg treatment ([1]; I.N. 5 mg vs 1 mg/animal/day, persisted to day 14): 9 days | post-treatment fat mass decrease compared to pre-treatment mass ([1]; I.N. 5 mg/animal/day, 14 days, obese mice): 23.21±9.27% | day from which weight was robustly decreased ([1]; I.N. 5 mg/animal/day, obese mice): 3 days | body weight lost at the end of the experiment [1, 4]: 6.36±0.88% | tissue mass (adipose tissues and liver) [1, 4]: remarkedly reduced tissue mass | whole-body metabolic improvements ([1]; intranasal, 14 days, diet-induced obese mice, compared with I.C.V. delivery): recapitulated the whole-body metabolic improvements observed with intracerebroventricular delivery | ARC pAKT +ve. cells (insulin receptor signalling) [2]: robust increase
